# From ChEMBL document CHEMBL1201862, “PubChem BioAssay data set” (2004)
# Active and inactive are the calls of the source.
# Tests used:
# [1] = IC50 of Artemis nuclease activity blockers – biochemical, fluorescence intensity, dose response (AID 720701); type: functional;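 note: Artemis endonuclease enzyme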
# [2] = molecular target: T1, Low molecular weight phosphotyrosine protein phosphatase (Homo sapiens, UniProt P24666); type: functional; settings: read-out: IC50_Mean;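 note: Dose-response confirmation assay measuring inhibition of LMPTP enzyme activity by fluorescence intensity read-out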
# T1 sequence (P24666 whole entry): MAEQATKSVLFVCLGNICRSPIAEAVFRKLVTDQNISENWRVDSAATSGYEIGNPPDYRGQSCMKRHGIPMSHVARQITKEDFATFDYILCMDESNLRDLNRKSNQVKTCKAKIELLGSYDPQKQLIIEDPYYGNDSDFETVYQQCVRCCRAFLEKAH
# [3] = molecular target: T2, Oxysterols receptor LXR-beta (Homo sapiens, UniProt P55055); type: functional, cell-based;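 note: agonist activity at LXR measured by a cell-based luminescence readout across a dose range, run as a counterscreen for daf-12 agonists; HEK293 cells with Gal4-LXR fusion and GAL4-driven luciferase reporter; potency for activation of Gal4-LXR reporter so compounds are agonists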
# T2 sequence (P55055 whole entry): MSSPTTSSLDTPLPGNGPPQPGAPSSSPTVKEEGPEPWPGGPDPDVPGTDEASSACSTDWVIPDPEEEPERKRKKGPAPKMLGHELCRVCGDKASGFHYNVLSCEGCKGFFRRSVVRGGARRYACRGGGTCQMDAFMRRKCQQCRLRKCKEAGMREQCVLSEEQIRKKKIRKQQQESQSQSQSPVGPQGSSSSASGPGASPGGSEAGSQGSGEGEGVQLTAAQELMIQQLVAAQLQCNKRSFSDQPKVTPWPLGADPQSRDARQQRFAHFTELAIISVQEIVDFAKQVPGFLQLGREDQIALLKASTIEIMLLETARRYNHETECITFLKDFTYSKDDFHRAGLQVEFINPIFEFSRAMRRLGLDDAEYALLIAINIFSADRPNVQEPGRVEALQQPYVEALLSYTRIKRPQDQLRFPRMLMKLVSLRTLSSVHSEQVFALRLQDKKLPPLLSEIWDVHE
# Mu-type opioid receptor = Mu-type opioid receptor (Homo sapiens, UniProt P35372); type: functional, cell-based;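 note: U2OS cells with beta-arrestin recruitment to OPRM1 by beta-gal complementation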
# [4] = viability loss in THP-1 monocytes – THP-1 cells, cytotoxicity control for Vif-APOBEC3G degradation inhibitor project, dose response (AID 1117359); type: functional; settings: THP-1
# [5] = molecular target: 5-hydroxytryptamine receptor 2A (Mus musculus, UniProt P35363); type: functional, cell-based;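 note: CHO-K1 cells with tagged receptor and beta-arrestin; agonist potency measured as compound-induced activation of the receptor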
# fMet-Leu-Phe receptor = molecular target: T3, fMet-Leu-Phe receptor (Homo sapiens, UniProt P21462); test: formyl peptide receptor binders – dose response (AID 519); type: functional
# T3 sequence (P21462 whole entry): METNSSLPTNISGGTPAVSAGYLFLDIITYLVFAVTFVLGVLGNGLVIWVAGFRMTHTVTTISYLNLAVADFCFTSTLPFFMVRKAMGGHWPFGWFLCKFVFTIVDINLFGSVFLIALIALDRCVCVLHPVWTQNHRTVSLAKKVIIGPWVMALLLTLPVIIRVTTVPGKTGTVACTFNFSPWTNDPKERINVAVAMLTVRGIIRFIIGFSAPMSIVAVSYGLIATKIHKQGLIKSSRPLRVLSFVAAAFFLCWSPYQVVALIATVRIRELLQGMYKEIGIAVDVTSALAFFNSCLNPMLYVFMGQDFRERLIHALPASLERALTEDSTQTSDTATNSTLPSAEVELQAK
# [6] = reduced cellular PGC1a acetyl-lysine signal – cell-based, cherry-picked samples, dose response (AID 720514); type: functional;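 note: potency may reflect raised or lowered acetylation signal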
# [7] = molecular target: Eukaryotic translation initiation factor 4E (Mus musculus, UniProt P63073); test: blockers of eIF4G binding by eIF4E – biochemical, TR-FRET, dose response (AID 855); type: functional;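 note: potency for disrupting eIF4E binding to eIF4GI seen as loss of FRET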
# [8] = molecular target: Induced myeloid leukemia cell differentiation protein Mcl-1 (Homo sapiens, UniProt Q07820); type: functional
# [9] = HPDE-C7 pancreatic duct cell viability loss – fluorescence, HTS (AID 430); type: functional, cell-based; settings: Homo sapiens
# [10] = viability loss of HPDE-C7K cells – cell-based, fluorescence, HTS, primary screen (AID 431); type: functional; settings: Homo sapiens
# [11] = OVCAR8 cell viability loss – plate reader, dry powder samples, PAX8 project, dose response (AID 743197); type: functional, cell-based; settings: OVCAR-8
# [12] = A2780 cell killing – plate reader, dry powder samples, cytotoxicity control, dose response (AID 743046); type: functional, cell-based
# Paired box protein Pax-8 = Paired box protein Pax-8 (Homo sapiens, UniProt Q06710); test: PAX8 transcriptional activity inhibition in RMG-I – RMG-I cells, luciferase, cherry-pick, dose response (AID 687027); type: functional, cell-based;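 note: luciferase reporter driven by Pax8 target thyroperoxidase promoter measured by SteadyGlo luminescence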
# [13] = OVCAR-3 cell viability loss – plate reader, dry powder samples, PAX8 inhibitor project, dose response (AID 743044); type: functional, cell-based
# [14] = general cell-killing toxicity readout – plate reader, dry powder samples, cytotoxicity control for PAX8 inhibitor project, dose response (AID 743021); type: functional, cell-based
# [15] = cytotoxicity in MITF-independent A375 cells – cell-based, CellTiter-Glo luminescence, dry powder, set 4, counter-screen for MITF inhibitor project, dose response (AID 624364); type: functional; settings: A-375;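 note: A375 melanoma cells are MITF independent so this is a counter screen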
# [16] = viability loss in MITF-independent A375 cells – cell-based, CellTiter-Glo luminescence, dry powder, set 2, counter-screen for MITF inhibitor project, dose response (AID 624489); type: functional; settings: A-375;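 note: actives are compounds lowering A375 viability meaning general cytotoxicity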
# [17] = blockers of bursicon-stimulated LGR2 cAMP reporter – cell-based, HEK293, CRE-luciferase reporter, cherry pick, set 2, dose response (AID 743343); type: functional;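 note: transfected cells were stimulated with diluted bursicon conditioned medium after compound addition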
# [18] = viability loss in HEK293 cells – cell-based, plate reader, cherry-picked samples, cytotoxicity control, dose response (AID 743446); type: functional
# [19] = blockade of melanocortin 4 receptor signaling – cell-based, plate reader, cherry pick, counter-screen for LGR2 antagonist project, dose response (AID 743444); type: functional;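 note: transfected HEK 293 cells stimulated with alpha-MSH peptide; potency of inhibitors of the alpha-MSH evoked signal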
# [20] = toxicity toward HepG2 liver cells – cell-based, plate reader, cherry-pick, antagonist series, cytotoxicity control, dose response (AID 743416); type: functional
# [21] = molecular target: Peroxisome proliferator-activated receptor gamma/Nuclear receptor coactivator 1 (Homo sapiens, UniProt P37231); type: functional;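 note: agonist potency as compounds enhance coactivator SRC-1 recruitment to PPARgamma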
# [22] = molecular target: Peroxisome proliferator-activated receptor gamma/Nuclear receptor coactivator 3 (Homo sapiens, UniProt P37231); type: functional;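 note: agonist potency for raising coactivator recruitment to the receptor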
# [23] = molecular target: Peroxisome proliferator-activated receptor gamma/Nuclear receptor coactivator 2 (Homo sapiens, UniProt P37231); type: functional;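 note: agonist potency for raising coactivator recruitment to the receptor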
# Streptococcus = test: GAS UMAA2166 growth inhibition – luminescence, BacTiterGlo, counter-screen for streptokinase expression inhibitor project, dose response (AID 1915); type: functional, organism-based;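 note: potency for reduction of bacterial viability or growth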
# [24] = viability of PTEN-deleted HCT116 cells – cell-based, HCT116 PTEN knockout, dose response (AID 1047); type: functional;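 note: HCT116 colon tumor cells with PTEN knocked out; cells exposed to compound for 60 hours before readout; potency for loss of cell viability measured by luminescence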
# [25] = viability of uninfected HEp-2 cells – cell-based, HTS, cytotoxicity control for RSV inhibitor project, dose response (AID 2410); type: functional; settings: human respiratory syncytial virus
# [26] = tested on: Streptococcus sp. 'group A'; test: Streptococcus pyogenes SK(-)GAS viability under kanamycin – luminescence, BacTiterGlo, confirmation, counter-screen for streptokinase expression inhibitor project, dose response (AID 1900); type: functional, organism-based
# [27] = viability of HCT116 lacking mutant beta-catenin – cell-based, human colon tumor, dose response (AID 1045); type: functional;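 note: HCT116 colon tumor cells with beta catenin knocked out; cells exposed to compound for 60 hours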
# [28] = off-target signal loss in HeLa-CEM21 co-culture – HeLa F-luc CTL cells, cherry-picked, counter-screen for HIV-1 Env fusion inhibitor project, dose response (AID 652040); type: functional, cell-based;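 note: potency for signal decrease marking cytotoxic or nonspecific inhibition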
# [29] = blockers of HIV-1 envelope-mediated cell-cell fusion – cherry-pick, dose response (AID 652057); type: functional, cell-based
# [30] = HIV-1 AD8 envelope cell-cell fusion blockers – cherry-pick, dose response (AID 652062); type: functional, cell-based;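 note: luciferase signal from cell-cell fusion driven by HIV-1 clade B AD8 Env; potency is for inhibitors of fusion seen as a drop in luminescence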
# [31] = blockers of HIV-1 ZM109 envelope-driven cell-cell fusion – HeLa effector, CEM target cells, luciferase, cherry-pick, dose response (AID 652058); type: functional, cell-based;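 note: luciferase signal from HIV-1 Env mediated cell-cell fusion of effector and target cells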
# [32] = molecular target: T4, Calpain-2 catalytic subunit (Sus scrofa, UniProt P43367); test: m-calpain protease blockers, concentration series – biochemical, fluorogenic peptide substrate, dose response (AID 1420); type: functional
# T4 sequence (P43367 whole entry): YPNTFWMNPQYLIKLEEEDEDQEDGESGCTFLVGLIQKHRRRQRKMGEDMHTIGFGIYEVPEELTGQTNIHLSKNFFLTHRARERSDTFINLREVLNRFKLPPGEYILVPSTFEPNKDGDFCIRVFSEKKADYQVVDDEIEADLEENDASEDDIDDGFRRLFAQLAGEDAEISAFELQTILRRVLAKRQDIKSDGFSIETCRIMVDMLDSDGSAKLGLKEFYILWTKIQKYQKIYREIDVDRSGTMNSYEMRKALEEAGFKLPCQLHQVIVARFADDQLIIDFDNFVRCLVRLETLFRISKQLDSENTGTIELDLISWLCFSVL
# [33] = microbe, parasite or virus in culture; type: functional; settings: Mycobacterium tuberculosis
# Cysteine protease ATG4B = molecular target: T5, Cysteine protease ATG4B (Homo sapiens, UniProt Q9Y4P1); type: functional;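 note: Fluorescence-based dose-response confirmation assay measuring inhibition of ATG4B activity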
# T5 sequence (Q9Y4P1 whole entry): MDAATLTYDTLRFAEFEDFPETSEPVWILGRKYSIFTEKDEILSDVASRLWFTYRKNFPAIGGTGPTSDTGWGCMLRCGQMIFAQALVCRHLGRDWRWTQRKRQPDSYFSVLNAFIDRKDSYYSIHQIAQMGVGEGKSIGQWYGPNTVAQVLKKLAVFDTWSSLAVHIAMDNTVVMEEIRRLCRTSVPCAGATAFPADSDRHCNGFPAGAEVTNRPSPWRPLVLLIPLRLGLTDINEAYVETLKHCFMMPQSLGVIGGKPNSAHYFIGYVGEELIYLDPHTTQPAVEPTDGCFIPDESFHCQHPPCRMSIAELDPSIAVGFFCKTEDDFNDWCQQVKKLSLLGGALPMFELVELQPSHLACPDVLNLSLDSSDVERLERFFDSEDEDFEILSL
# Phospholipase A2 = Phospholipase A2 (Homo sapiens, UniProt P04054); type: functional;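 note: confirmatory dose-response counterscreen on phospholipase A2, testing hits that came from an ultra-high-throughput screen for ATG4B inhibitors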
# [34] = molecular target: Heat shock protein HSP 90-alpha (Homo sapiens, UniProt P07900); type: functional, organism-based
# Chain of Paired box protein Pax-8 (Q06710 whole entry): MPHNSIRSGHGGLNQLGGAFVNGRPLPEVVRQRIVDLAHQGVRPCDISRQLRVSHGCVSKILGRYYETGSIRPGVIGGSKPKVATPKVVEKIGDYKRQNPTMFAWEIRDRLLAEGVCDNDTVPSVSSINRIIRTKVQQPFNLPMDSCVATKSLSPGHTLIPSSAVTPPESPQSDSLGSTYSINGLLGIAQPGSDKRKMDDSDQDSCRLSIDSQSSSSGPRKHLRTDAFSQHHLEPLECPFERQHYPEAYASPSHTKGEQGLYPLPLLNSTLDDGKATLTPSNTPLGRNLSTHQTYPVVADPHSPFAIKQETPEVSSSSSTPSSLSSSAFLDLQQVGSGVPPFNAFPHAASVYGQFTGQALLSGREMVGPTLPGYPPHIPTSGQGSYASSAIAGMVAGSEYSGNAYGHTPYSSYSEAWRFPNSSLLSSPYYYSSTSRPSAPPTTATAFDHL
# Chain of Eukaryotic translation initiation factor 4E (P63073 whole entry): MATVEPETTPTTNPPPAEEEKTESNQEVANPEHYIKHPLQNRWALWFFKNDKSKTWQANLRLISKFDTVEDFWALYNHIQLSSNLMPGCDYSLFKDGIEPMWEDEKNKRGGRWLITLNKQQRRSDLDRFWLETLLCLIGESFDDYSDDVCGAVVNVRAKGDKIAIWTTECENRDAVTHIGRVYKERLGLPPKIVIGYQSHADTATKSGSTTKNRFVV
# Chain of 5-hydroxytryptamine receptor 2A (P35363 whole entry): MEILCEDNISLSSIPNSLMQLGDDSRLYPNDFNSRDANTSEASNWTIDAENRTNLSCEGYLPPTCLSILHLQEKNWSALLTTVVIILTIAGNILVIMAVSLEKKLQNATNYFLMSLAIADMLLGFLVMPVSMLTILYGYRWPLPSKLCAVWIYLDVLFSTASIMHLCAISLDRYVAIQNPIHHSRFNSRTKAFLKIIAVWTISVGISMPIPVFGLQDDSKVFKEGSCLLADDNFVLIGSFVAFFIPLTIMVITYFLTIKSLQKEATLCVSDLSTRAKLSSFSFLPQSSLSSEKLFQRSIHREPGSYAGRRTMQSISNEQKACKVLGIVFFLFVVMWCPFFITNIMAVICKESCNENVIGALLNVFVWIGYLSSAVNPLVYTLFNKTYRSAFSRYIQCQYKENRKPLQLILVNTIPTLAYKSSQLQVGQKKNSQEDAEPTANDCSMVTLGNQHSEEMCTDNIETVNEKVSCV
# Chain of Peroxisome proliferator-activated receptor gamma/Nuclear receptor coactivator 3 (P37231 whole entry): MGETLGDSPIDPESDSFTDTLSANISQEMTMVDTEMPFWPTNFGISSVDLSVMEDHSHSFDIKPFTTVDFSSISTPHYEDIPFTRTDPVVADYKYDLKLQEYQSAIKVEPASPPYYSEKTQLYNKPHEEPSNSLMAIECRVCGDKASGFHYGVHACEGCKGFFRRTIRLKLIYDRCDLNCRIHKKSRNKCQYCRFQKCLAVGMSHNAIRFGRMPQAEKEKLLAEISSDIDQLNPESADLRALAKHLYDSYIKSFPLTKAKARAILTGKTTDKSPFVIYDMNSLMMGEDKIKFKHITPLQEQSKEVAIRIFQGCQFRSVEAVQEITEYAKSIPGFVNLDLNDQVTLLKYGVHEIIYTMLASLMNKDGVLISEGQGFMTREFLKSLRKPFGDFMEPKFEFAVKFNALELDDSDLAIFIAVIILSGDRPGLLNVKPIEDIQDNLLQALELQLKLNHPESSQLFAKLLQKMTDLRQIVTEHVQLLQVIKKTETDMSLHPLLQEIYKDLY
# Chain of Peroxisome proliferator-activated receptor gamma/Nuclear receptor coactivator 3 (Q9Y6Q9 whole entry, further chain): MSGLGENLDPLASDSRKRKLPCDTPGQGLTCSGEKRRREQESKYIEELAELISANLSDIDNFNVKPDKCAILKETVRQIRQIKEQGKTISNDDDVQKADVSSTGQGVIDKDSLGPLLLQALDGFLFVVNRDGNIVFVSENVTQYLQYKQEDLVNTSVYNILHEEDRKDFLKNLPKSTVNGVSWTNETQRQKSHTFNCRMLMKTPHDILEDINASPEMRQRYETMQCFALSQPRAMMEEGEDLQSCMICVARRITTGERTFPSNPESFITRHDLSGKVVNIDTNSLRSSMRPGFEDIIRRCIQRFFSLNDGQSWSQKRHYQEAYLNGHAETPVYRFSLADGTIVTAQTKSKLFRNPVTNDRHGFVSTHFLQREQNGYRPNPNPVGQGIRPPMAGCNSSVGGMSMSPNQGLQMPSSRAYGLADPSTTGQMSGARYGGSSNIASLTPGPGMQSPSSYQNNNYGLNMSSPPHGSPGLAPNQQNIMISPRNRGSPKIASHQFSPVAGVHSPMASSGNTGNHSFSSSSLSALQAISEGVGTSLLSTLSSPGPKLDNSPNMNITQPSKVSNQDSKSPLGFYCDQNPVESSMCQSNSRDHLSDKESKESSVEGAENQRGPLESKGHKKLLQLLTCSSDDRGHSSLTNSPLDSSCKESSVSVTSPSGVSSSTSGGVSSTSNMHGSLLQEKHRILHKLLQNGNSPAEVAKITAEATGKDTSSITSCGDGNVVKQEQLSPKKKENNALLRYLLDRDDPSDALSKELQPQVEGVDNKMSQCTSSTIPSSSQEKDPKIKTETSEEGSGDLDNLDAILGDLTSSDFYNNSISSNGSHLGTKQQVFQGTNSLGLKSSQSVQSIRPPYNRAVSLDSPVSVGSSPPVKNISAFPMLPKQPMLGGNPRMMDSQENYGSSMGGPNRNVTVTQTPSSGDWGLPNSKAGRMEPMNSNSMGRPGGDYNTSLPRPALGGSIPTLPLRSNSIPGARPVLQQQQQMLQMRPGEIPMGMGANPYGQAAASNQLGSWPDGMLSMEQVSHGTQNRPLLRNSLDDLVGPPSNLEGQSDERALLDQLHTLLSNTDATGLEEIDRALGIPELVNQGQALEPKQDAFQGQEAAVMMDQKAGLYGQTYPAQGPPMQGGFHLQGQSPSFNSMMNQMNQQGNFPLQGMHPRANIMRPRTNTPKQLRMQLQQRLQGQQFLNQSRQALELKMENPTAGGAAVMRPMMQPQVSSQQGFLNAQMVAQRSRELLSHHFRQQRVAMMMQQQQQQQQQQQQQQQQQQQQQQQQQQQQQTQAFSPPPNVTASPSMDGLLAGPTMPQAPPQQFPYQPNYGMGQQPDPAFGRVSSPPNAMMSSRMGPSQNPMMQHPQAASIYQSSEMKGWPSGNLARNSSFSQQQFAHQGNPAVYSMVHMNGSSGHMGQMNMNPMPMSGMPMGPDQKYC
# Chain of Peroxisome proliferator-activated receptor gamma/Nuclear receptor coactivator 2 (P37231 whole entry): as the sequence (P37231 whole entry) above
# Chain of Peroxisome proliferator-activated receptor gamma/Nuclear receptor coactivator 2 (Q15596 whole entry, further chain): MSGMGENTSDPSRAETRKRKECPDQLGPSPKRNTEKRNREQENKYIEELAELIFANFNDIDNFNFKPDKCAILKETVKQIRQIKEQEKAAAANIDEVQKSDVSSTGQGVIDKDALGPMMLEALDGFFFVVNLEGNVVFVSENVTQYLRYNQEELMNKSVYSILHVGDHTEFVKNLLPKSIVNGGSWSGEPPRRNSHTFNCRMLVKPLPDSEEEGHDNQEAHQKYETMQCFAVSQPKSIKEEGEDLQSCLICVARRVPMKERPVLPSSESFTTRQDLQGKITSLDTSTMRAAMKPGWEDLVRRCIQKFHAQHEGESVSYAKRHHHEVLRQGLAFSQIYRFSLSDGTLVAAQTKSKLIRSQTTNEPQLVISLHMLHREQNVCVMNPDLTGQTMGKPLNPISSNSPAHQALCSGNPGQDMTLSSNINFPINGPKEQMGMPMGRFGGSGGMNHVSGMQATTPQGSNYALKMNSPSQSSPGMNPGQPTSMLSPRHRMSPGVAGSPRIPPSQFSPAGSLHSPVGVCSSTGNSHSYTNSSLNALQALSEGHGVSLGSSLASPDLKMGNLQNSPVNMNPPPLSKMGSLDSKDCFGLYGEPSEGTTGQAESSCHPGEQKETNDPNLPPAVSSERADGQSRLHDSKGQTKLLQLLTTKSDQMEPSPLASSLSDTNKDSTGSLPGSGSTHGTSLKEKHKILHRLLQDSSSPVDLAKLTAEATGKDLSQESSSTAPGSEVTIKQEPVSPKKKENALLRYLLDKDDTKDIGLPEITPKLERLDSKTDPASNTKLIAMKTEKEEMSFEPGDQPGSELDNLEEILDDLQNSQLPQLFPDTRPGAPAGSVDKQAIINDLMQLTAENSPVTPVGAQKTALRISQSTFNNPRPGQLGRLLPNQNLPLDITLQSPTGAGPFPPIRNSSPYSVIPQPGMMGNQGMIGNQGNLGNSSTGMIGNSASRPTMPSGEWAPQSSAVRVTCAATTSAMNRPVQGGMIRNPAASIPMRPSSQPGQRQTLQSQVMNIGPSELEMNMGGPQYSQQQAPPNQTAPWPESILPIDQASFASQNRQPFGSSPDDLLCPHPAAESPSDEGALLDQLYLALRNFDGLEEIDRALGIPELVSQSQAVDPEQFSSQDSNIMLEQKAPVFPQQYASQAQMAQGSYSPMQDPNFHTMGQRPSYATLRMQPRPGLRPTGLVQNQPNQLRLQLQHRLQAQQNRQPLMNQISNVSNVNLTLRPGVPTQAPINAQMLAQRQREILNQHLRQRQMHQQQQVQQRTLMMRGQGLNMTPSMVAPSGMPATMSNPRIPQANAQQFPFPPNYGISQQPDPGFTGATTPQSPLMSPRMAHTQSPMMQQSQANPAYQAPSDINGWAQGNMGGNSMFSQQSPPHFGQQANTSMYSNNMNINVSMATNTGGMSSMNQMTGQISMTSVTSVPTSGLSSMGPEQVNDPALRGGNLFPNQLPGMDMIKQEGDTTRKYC
structure (smiles),measurement,setting,value
Oc1cc(-c2ccccc2)nc2nc(-c3ccco3)nn12,IC50,[1],> 20 µM (inactive)
same,IC50,[2],80 µM (inactive)
COc1ccccc1-c1noc(-c2cccs2)n1,EC50,[3],> 67.5 µM (inactive)
Oc1cc2c(cc1O)[C@@H](c1ccccc1)CNCC2,EC50,Mu-type opioid receptor,92.7 µM (inactive)
same,CC50,[4],> 40 µM (active)
same,EC50,[5],28.2 µM (inactive)
CC1CCN(S(=O)(=O)c2ccc3c(c2)oc(=O)n3CC(=O)NCc2ccc3c(c2)OCO3)CC1,Ki,fMet-Leu-Phe receptor,> 66.7 µM (inactive)
CNc1nc(-c2c[nH]c3ccccc23)cs1,IC50,[1],> 20 µM (inactive)
CCOC(=O)C1CCN(Cc2ccc(C(=O)OC)cc2)CC1,Ki,fMet-Leu-Phe receptor,> 66.7 µM (inactive)
Oc1cc(CSc2ccccn2)nc(O)n1,AC50,[6],1.86 µM (active)
O=[N+]([O-])c1cc(CN2CCOCC2)c2cccnc2c1O,IC50,[7],50 µM (inactive)
same,CC50,[4],> 40 µM (active)
same,IC50,[8],2.93 µM (active)
CN(Cc1cc2ccccc2nc1O)S(C)(=O)=O,EC50,[9],> 20 µM (not active)
same,EC50,[10],> 20 µM (not active)
ON=C(CCc1ccccc1)c1ccccc1,EC50,[3],> 67.5 µM (inactive)
C[C@@H]1CCCCO[C@H](CN(C)C(=O)Cc2ccccc2)[C@@H](C)CN([C@@H](C)CO)C(=O)c2cc(NS(=O)(=O)c3ccc(Cl)cc3)ccc2O1,AC50,[11],39.2 µM (active)
same,AC50,[12],48.6 µM (active)
same,AC50,Paired box protein Pax-8,7.18 µM (active)
same,AC50,[13],23.3 µM (active)
COc1ccccc1C#Cc1ccc2c(c1)O[C@@H](CN(C)Cc1cccnc1)[C@H](C)CN([C@H](C)CO)S2(=O)=O,AC50,[14],21.8 µM (active)
same,AC50,[6],5.09 µM (active)
same,AC50,[11],18.3 µM (active)
same,AC50,Paired box protein Pax-8,2.04 µM (active)
C=CCNC1=C(NCCCN(CC)CC)C(=O)c2ccccc2C1=O,AC50,[15],25.3 µM (active)
same,AC50,[16],17.9 µM (active)
Cc1ccc(C(=O)C2C(=O)C3CCC2C3)cc1 (stereo not given),AC50,[17],8.6 µM (active)
same,AC50,[18],> 52 µM (inactive)
same,AC50,[19],4.95 µM (active)
O=C(NC1=C(c2ccc(OC(F)(F)F)cc2)C(=O)c2ccccc2C1=O)c1ccccc1,AC50,[15],28.5 µM (active)
same,AC50,[16],20.7 µM (active)
COc1ccc(NC(=O)Nc2ccc3c(c2)CC(=O)N([C@@H](C)CO)C[C@@H](C)[C@H](CN(C)Cc2ccncc2)O3)cc1,AC50,[20],> 52 µM (inactive)
same,AC50,[18],> 52 µM (inactive)
COc1ccc(Br)cc1C(=O)N/N=C/c1ccc([N+](=O)[O-])cc1,EC50,[21],> 79.4 µM (not active)
same,EC50,[22],> 79.4 µM (not active)
same,EC50,[23],> 79.4 µM (not active)
O=[N+]([O-])c1ccc(/C=N/Nc2nc(-c3ccccc3)c3cc(Br)ccc3n2)o1,EC50,Streptococcus,0.934 µM (active)
same,EC50,[24],26.1 µM (active)
same,CC50,[25],> 50 µM (active)
same,IC50,[1],6.57 µM (active)
same,IC50,[2],80 µM (inactive)
same,EC50,[26],0.703 µM (active)
same,EC50,[27],29.7 µM (active)
COc1cc(/C=N/NS(=O)(=O)c2ccc(C)cc2)ccc1OCc1cccc(C(=O)O)c1,AC50,[28],5.81 µM (active)
same,AC50,[29],2.17 µM (active)
same,AC50,Paired box protein Pax-8,13 µM (active)
same,AC50,[30],6.48 µM (active)
same,AC50,[31],19.5 µM (active)
c1ccc(-c2ccc(C(c3ccccc3)n3ccnc3)cc2)cc1 (stereo not given) [BIFONAZOLE],EC50,[9],> 20 µM (not active)
same,IC50,[32],14.7 µM (not active)
same,CC50,[33],> 40 µM (active)
same,IC50,Cysteine protease ATG4B,8.5 µM (active)
same,IC50,Phospholipase A2,8.89 µM (active)
same,EC50,[10],17.8 µM (active)
same,AC50,[34],1.06 µM (active)
